{"source": "patent US11434537B2", "about": "“Biomarker for prognosis of colorectal cancer” (NATIONAL CHENG KUNG UNIVERSITY, priority 2020, dated 2022)", "assay_type_in_all_cases": "cell-based, human", "key": {"LC3 puncta": {"system": "LC3 puncta", "experiment": "LC3 puncta formation by immunofluorescent assay", "conditions": "10 μM, SW480 cells", "method": "(§1) FIGS. 14(a) to 14(f) show the involvement of autophagy in miR-338-5p-related CRC migration and invasion in vitro. […] LC3 puncta were labelled with anti-LC3 antibody and fluorescent isothiocyanate-conjugated goat anti-rabbit IgG (green fluorescence). SW480 cell nuclei were stained with Hoechst 33258 (blue fluorescence). Images were photographed using florescent microscopy (the scale bar represents 10 μm). Data are presented as median (IQR) (n=5) (P value was analyzed using Mann-Whitney tests). […] (100 nM). […] Data are presented as median (IQR) (n=5) (P value was analyzed using Mann-Whitney tests). The scale bar represents 50 μm. […] Number of migrated cells was counted after 24 h. The scale bar represents 100 μm. Data are expressed as median (IQR) (n=6) (P value was analyzed using MannWhitney tests). […] The scale bar represents 50 μm. Data are expressed as means±SEM (n=8) (P value was analyzed using t tests).\n(§2) To clarify the mechanism(s) underlying miR-338-5p induced migration and invasion of CRC, the involvement of autophagy was assessed. Specifically, the LC3 puncta (microtubule associated protein 1A/1B-LC3) formation and LC3 type II (LC3-II) protein expression were examined in cells treated with amiodarone (an autophagy inducer) by immunofluorescent assay."}, "SW480 cells": {"system": "SW480 cells", "experiment": "Transwell migration assay, SW480", "conditions": "10 μM, Transwell (FIG. 14(c))"}, "LC3-II": {"system": "LC3-II", "experiment": "Western blot of LC3-II (autophagy)", "conditions": "10 μM, 48 h, CRC cells (SW480, HCT116)", "method": "as §1\nFIGS. 15(a) to 15(c) show the involvement of autophagy or EMT pathway in miR-338-5p-related CRC migration in vitro. […] Representative results of Transwell assays are also shown. […] Data are presented as means±SEM (n=8) (P values were analyzed using t tests). […] The number of migrated cells is shown as means±SEM (n=8) (P values were analyzed using t tests).\nTo clarify the mechanism(s) underlying miR-338-5p induced migration and invasion of CRC, the involvement of autophagy was assessed. […]"}, "HCT116 cells [1]": {"system": "HCT116 cells", "experiment": "Transwell invasion assay, HCT116", "conditions": "amiodarone-treated HCT116 cells, Transwell invasion 48 h (FIG. 14(f))", "method": "as §1, §2"}, "HCT116 cells [2]": {"system": "HCT116 cells", "experiment": "Wound-healing and Transwell migration assays, HCT116", "conditions": "10 μM for 48 h, HCT116 stable cells, wound healing 24 h (FIG. 14(e))", "method": "Then, HCT116 cells transfected with miR-338-5p were assessed for cell migration in vitro with a wound-healing assay analyzed at 24 h and a Transwell assay analyzed at 48 h (Corning, Corning City, N.Y.). Cell invasion in vitro was estimated using a Transwell assay, in which cells were seeded on Transwell columns coated with a Matrigel membrane (BD Biosciences, San Jose, Calif.). Then, cells on the bottom of membrane were counted after 96 h. […] Thus, miR-338-5p promotes CRC migration and invasion in vitro."}}, "data": [{"molecule": "CCCCc1oc2ccccc2c1C(=O)c1cc(I)c(OCCN(CC)CC)c(I)c1", "note": "[Amiodarone, amiodarone]", "values": [{"measurement": "LC3 puncta formation", "setting": "LC3 puncta", "result": "induced LC3 puncta formation"}, {"measurement": "cell migration", "setting": "SW480 cells", "result": "inhibition of cell migration"}, {"measurement": "LC3-II expression", "setting": "LC3-II", "result": "activated LC3-II expression"}, {"measurement": "cell invasion", "setting": "HCT116 cells [1]", "result": "inhibition of cell invasion"}, {"measurement": "cell migration", "setting": "HCT116 cells [2]", "result": "inhibition of cell migration"}]}]}
